Data from publication PMC7913925, “Design and Evaluation of a Polypeptide That Mimics the Integrin Binding Site for EDA Fibronectin to Block Profibrotic Cell Activity” (International Journal of Molecular Sciences, 2021).
Bridges are numbered along the chain shown (N, C = ends). Where no end group is shown, it is not given here.

Experiments:
[1] = tested on: F-actin in NIH/3T3 fibroblasts; test: F-actin staining; assay type: cell-based, mouse; details: 48 h, TGF-β1 10 ng/mL, AF38Pep 10 µg/mL
Method: (§1) Cells were grown to 40% confluence in 8-well glass chamber slides (Nunc, Thermo Fisher Scientific), prior to growth arrest and treatment. Cells were washed with PBS before fixation in 4% paraformaldehyde for 10 min at room temperature. Next, cells were permeabilized with 0.1% (v/v) Triton X-100 in PBS for 10 min at room temperature. For visualization of ECM, cells were fixed with 100% ice-cold methanol for 8 min at −20 °C. Slides were washed with PBS and blocked with 1% goat serum (TBD Science, Tianjin, China) for 30 min before washing with 0.1% (w/v) BSA in PBS. Subsequently, slides were incubated with monoclonal mouse anti-α-SMA antibody (Sigma-Aldrich, 1:50) diluted in 0.1% BSA-PBS, overnight at 4 °C. After further wash steps, slides were incubated with goat anti-mouse IgG CF-488 secondary antibody (Abcam, 1:1000) in 0.1% BSA-PBS for 1 h at room temperature and under darkness. For F-actin visualization, after fixation and permeabilization; cells were incubated with phalloidin conjugated to FITC (Sigma-Aldrich) in 0.1% BSA-PBS, overnight at 4 °C. Cells were then mounted in DAPI Fluoromount-G (Thermo Fisher Scientific) and imaged using a Zeiss Axio Imager Z1 UV fluorescence microscope (Zeiss, Jena, Germany) and a Leica TCS SP5 laser scanning confocal microscope (Leica Biosystems, Baden-Württemberg, Germany).

[2] = tested on: α-SMA in NIH/3T3 dermal fibroblasts; test: Immunocytochemistry α-SMA stress fibers; assay type: cell-based, mouse; details: 48 h, TGF-β1 10 ng/mL, AF38Pep 10 µg/mL
Method: as §1

[3] = tested on: human HFL1 lung fibroblast cells, α-SMA mRNA; test: α-SMA mRNA expression (qRT-PCR) in TGF-β1-treated HFL1; assay type: cell-based
Method: HFL1 cells were cultured in Kaighn’s modified Ham’s F-12 (F-12K) medium (Sigma-Aldrich) containing NaHCO3 and HEPES buffered to pH 7. Cells were grown to confluence in T75 culture flasks in the presence of 10% fetal bovine serum (FBS; Gibco, Thermo Fisher Scientific, Waltham, MA, USA). HFL1 cells were subcultured using 0.05% trypsin at a ratio of 1:3. NIH/3T3 cells were cultured in Dulbecco’s Modified Eagle Medium (DMEM; HyClone, Thermo Fisher Scientific) containing 100 U/mL penicillin and 100 μg/mL streptomycin. Cells were grown to confluence in T75 culture flasks in the presence of 10% FBS. NIH/3T3 cells were subcultured using 0.05% trypsin/EDTA at a ratio of 1:3. All cells were maintained at 37 °C and 5% CO2, and growth medium was replenished every 3 days until experimentation. Cells were growth-arrested in serum-free medium for 48 h before experiments, and all experiments were performed under serum-free conditions using cells between passages 3 and 8.
Reverse transcription (RT) and real-time quantitative PCR (qRT-PCR) were used to assess ACTA2/Acta2, Col1a1, Col3a1, Fn1, Eda-Fn1, Mmp9, Tgfb1, Ltbp1, Hic5, and Mrtfa mRNA expressions. Custom PCR primers were designed in-house (Table 2) and then synthesized by BGI (Beijing, China). […]

OPN–ITGA4 interaction = test: Co-IP of OPN with ITGA4; assay type: cell-based; details: 48 h, Co-IP with anti-ITGA4
Method: Total protein was extracted from cells in RIPA lysis buffer containing 1% protease inhibitor cocktail, 1% phenylmethylsulfonyl fluoride, and 1% sodium orthovanadate (Santa Cruz Biotechnology, Santa Cruz, CA, USA). Protein was quantified by Micro BCA Protein Assay Kit (Thermo Fisher Scientific) before 7.5% SDS-PAGE and transfer to nitrocellulose. Membranes were blocked with 5% bovine serum albumin (BSA; Sigma-Aldrich)/0.5% Tween-20 (Sigma-Aldrich)/PBS for 1 h, RT, followed by incubation with primary antibodies diluted in 1% BSA/0.1% Tween-20/PBS, overnight at 4 °C. Primary antibodies were: anti-phosphoY204/Y187 ERK1/2 (1:1000); anti-ERK1/2 (1:1000); anti-phosphoY861 FAK (1:1000); anti-FAK (1:2000). Immunoblotting for anti-GAPDH (1:2500) was used as a protein loading control. Following wash steps, membranes were incubated in goat anti-rabbit IgG H&L secondary antibody (horseradish peroxidase, HRP conjugate, […]) (Abcam; 1:5000 dilution, 1% BSA/0.1% Tween-20/PBS). Detection was performed using Immobilon reagent (Merck Millipore, Burlington, MA, USA) and imaged using a Tanon 5500 Chemiluminescent Imaging System (Tanon, Shanghai, China).
A volume of 25 µg total protein from cell lysate in nondenaturing lysis buffer containing protease inhibitors was immunoprecipitated (IP) using anti-ITGA4 antibodies linked to protein A/G sepharose beads (Abcam). […]

## VMPYISTTPAKPCTSENCGNSWYGGFKSKNENKIYFIN (disulfide 13-18 (inferred)) [AF38Pep]
[1]
  F-actin fiber assembly: cellular actin reassembly into F-actin fibers still occurred
[2]
  α-SMA protein expression (stress fibers): inhibited
[3]; HFL1, 48 h, 0.1–10 µg/mL
  attenuation of TGF-β1-induced α-SMA mRNA: significantly reduced by 0.1–10 µg/mL peptide at 48 h
[3]; HFL1, 72 h, 10 µg/mL
  attenuation of TGF-β1-induced α-SMA mRNA: only 10 µg/mL was sufficient for inhibition of expression at 72 h
OPN–ITGA4 interaction
  OPN–ITGA4 binding: did not influence OPN–ITGA4 binding
